Laboratory results reported in patent publication US6770596B1, “Fused tricyclic compounds, process for their preparation, and herbicidal compositions containing them” (Ishihara Sangyo Kaisha Ltd., priority 2002, dated 2004).

Assays:
Format in all cases: in vivo
[1] = tested on: lambsquarters (Chenopodium album, CHA); assay: Post-emerge test, lambsquarters; conditions: 250 g ai/ha, 14 days after application, rating scale 0-100 (0 no damage, 100 complete death)
Outline: (§1)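 Emerged seedlings, usually at 2-3 leaves after 8-21 days' growth in sandy loam, were treated with 8-1000 g ai/ha. Treatment was an acetone spray at 187 l/ha containing 0.25% v/v non-ionic surfactant. Assessment at 14 days used a 0 (no damage) to 100 (total death) scale.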

[2] = tested on: common ragweed (Ambrosia artemisiifolia L., AML); assay: Post-emerge test, common ragweed; conditions: 250 g ai/ha, 14 days after application, rating scale 0-100 (0 no damage, 100 complete death)
Outline: as §1

[3] = tested on: soybean (Glycine max L., var. Pella 86, SOY); assay: Post-emerge test, crop damage soybean
Outline: as §1

[4] = tested on: large crabgrass (Digitaria sanguinalis, DIS); assay: Post-emerge test, large crabgrass; conditions: 250 g ai/ha, 14 days after application, rating scale 0-100 (0 no damage, 100 complete death)
Outline: as §1

[5] = tested on: field corn (Zea mays L., var. Dekalb 535, CORN); assay: Post-emerge test, crop damage field corn
Outline: as §1

[6] = tested on: velvetleaf (Abutilon theophrasti, ABT); assay: Post-emerge test, velvetleaf; conditions: 250 g ai/ha, 14 days after application, rating scale 0-100 (0 no damage, 100 complete death)
Outline: as §1

[7] = tested on: upland rice (Oryza sp., var.Tebonnet, RICE); assay: Pre-emerge test, crop damage upland rice
Outline: (§2)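 Pots (10 cm, sandy loam mix) were seeded one day ahead of spraying. Test materials, dissolved in acetone, went on at 8–1000 g ai/ha in a 187 l/ha spray volume. Damage was scored 14 days later from 0 (none) to 100 (total kill).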

[8] = tested on: lambsquarters (Chenopodium album, CHA); assay: Pre-emerge test, lambsquarters; conditions: 250 g ai/ha, 14 days after application, rating scale 0-100 (0 no damage, 100 complete death)
Outline: (§3)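 Efficacy values are 0–100 phytotoxicity scores (0 no damage, 100 complete death) recorded 14 days post-application. Spray was delivered pre-emergence at 187 l/ha with rates of 8–1000 g ai/ha, using acetone as solvent.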

[9] = tested on: soybean (Glycine max L., var. Pella 86, SOY); assay: Pre-emerge test, crop damage soybean
Outline: as §2

[10] = tested on: ivyleaf morningglory (Ipomoea hederacea, IPH); assay: Post-emerge test, ivyleaf morningglory; conditions: 250 g ai/ha, 14 days after application, rating scale 0-100 (0 no damage, 100 complete death)
Outline: as §1

[11] = tested on: cocklebur (Xanthium strumariunt, XAS); assay: Post-emerge test, cocklebur; conditions: 250 g ai/ha, 14 days after application, rating scale 0-100 (0 no damage, 100 complete death)
Outline: as §1

[12] = tested on: sicklepod (Cassia obtusifolia, CAO); assay: Pre-emerge test, sicklepod; conditions: 250 g ai/ha, 14 days after application, rating scale 0-100 (0 no damage, 100 complete death)
Outline: as §3

[13] = tested on: green foxtail (Setaria viridis, SEV); assay: Pre-emerge test, green foxtail; conditions: 250 g ai/ha, 14 days after application, rating scale 0-100 (0 no damage, 100 complete death)
Outline: as §3

[14] = tested on: ivyleaf morningglory (Ipomoea hederacea, IPH); assay: Pre-emerge test, ivyleaf morningglory; conditions: 250 g ai/ha, 14 days after application, rating scale 0-100 (0 no damage, 100 complete death)
Outline: as §3

[15] = tested on: field corn (Zea mays L., var. Dekalb 535, CORN); assay: Pre-emerge test, crop damage field corn
Outline: as §2

[16] = tested on: green foxtail (Setaria viridis, SEV); assay: Post-emerge test, green foxtail; conditions: 250 g ai/ha, 14 days after application, rating scale 0-100 (0 no damage, 100 complete death)
Outline: as §1

[17] = tested on: wheat (Triticum aestivum); assay: Post-emerge test, crop damage wheat
Outline: as §1

[18] = tested on: large crabgrass (Digitaria sanguinalis, DIS); assay: Pre-emerge test, large crabgrass; conditions: 250 g ai/ha, 14 days after application, rating scale 0-100 (0 no damage, 100 complete death)
Outline: as §3

[19] = tested on: cocklebur (Xanthium strumariunt, XAS); assay: Pre-emerge test, cocklebur; conditions: 250 g ai/ha, 14 days after application, rating scale 0-100 (0 no damage, 100 complete death)
Outline: as §3

[20] = tested on: upland rice (Oryza sp., var.Tebonnet, RICE); assay: Post-emerge test, crop damage upland rice
Outline: as §1

[21] = tested on: velvetleaf (Abutilon theophrasti, ABT); assay: Pre-emerge test, velvetleaf; conditions: 250 g ai/ha, 14 days after application, rating scale 0-100 (0 no damage, 100 complete death)
Outline: as §3

[22] = tested on: sicklepod (Cassia obtusifolia, CAO); assay: Post-emerge test, sicklepod; conditions: 250 g ai/ha, 14 days after application, rating scale 0-100 (0 no damage, 100 complete death)
Outline: as §1

[23] = tested on: wheat (Triticum aestivum); assay: Pre-emerge test, crop damage wheat
Outline: as §2

[24] = tested on: johnsongrass (Sorghum halepense, SOH); assay: Post-emerge test, johnsongrass; conditions: 250 g ai/ha, 14 days after application, rating scale 0-100 (0 no damage, 100 complete death)
Outline: as §1

[25] = tested on: barnyardgrass (Echinachloa crus-galli, ECC); assay: Pre-emerge test, barnyardgrass; conditions: 250 g ai/ha, 14 days after application, rating scale 0-100 (0 no damage, 100 complete death)
Outline: as §3

[26] = tested on: redroot pigweed (Amaranthus retroflexus, AMR); assay: Post-emerge test, redroot pigweed; conditions: 250 g ai/ha, 14 days after application, rating scale 0-100 (0 no damage, 100 complete death)
Outline: as §1

[27] = tested on: johnsongrass (Sorghum halepense, SOH); assay: Pre-emerge test, johnsongrass; conditions: 250 g ai/ha, 14 days after application, rating scale 0-100 (0 no damage, 100 complete death)
Outline: as §3

[28] = tested on: redroot pigweed (Amaranthus retroflexus, AMR); assay: Pre-emerge test, redroot pigweed; conditions: 250 g ai/ha, 14 days after application, rating scale 0-100 (0 no damage, 100 complete death)
Outline: as §3

[29] = tested on: common ragweed (Ambrosia artemisiifolia L., AML); assay: Pre-emerge test, common ragweed; conditions: 250 g ai/ha, 14 days after application, rating scale 0-100 (0 no damage, 100 complete death)
Outline: as §3

[30] = tested on: barnyardgrass (Echinachloa crus-galli, ECC); assay: Post-emerge test, barnyardgrass; conditions: 250 g ai/ha, 14 days after application, rating scale 0-100 (0 no damage, 100 complete death)
Outline: as §1

[31] = post-emerge, 250 g ai/ha, 14 days after application, rating scale 0-100 (0 no damage, 100 complete death)
[32] = pre-emerge, 250 g ai/ha, 14 days after application, rating scale 0-100 (0 no damage, 100 complete death)
[33] = var. Pella 86, Glycine max (soybean), in vivo, 14 days
[34] = var. Dekalb 535, Zea mays (field corn), in vivo, 14 days
[35] = var. Tebonnet, Oryza sp. (upland rice), in vivo, 14 days
[36] = Triticum aestivum (wheat), in vivo, 14 days

| Structure (SMILES) | Post-emerge Herbicidal Activity CHA (phytotoxicity rating) [1] | Post-emerge Herbicidal Activity AML (phytotoxicity rating) [2] | Post-emerge Herbicidal Activity DIS (phytotoxicity rating) [4] | Post-emerge Herbicidal Activity ABT (phytotoxicity rating) [6] | Pre-emerge Herbicidal Activity CHA (phytotoxicity rating) [8] | Post-emerge Herbicidal Activity IPH (phytotoxicity rating) [10] | Post-emerge Herbicidal Activity XAS (phytotoxicity rating) [11] | Pre-emerge Herbicidal Activity CAO (phytotoxicity rating) [12] | Pre-emerge Herbicidal Activity SEV (phytotoxicity rating) [13] | Pre-emerge Herbicidal Activity IPH (phytotoxicity rating) [14] | Post-emerge Herbicidal Activity SEV (phytotoxicity rating) [16] | Pre-emerge Herbicidal Activity DIS (phytotoxicity rating) [18] | Pre-emerge Herbicidal Activity XAS (phytotoxicity rating) [19] | Pre-emerge Herbicidal Activity ABT (phytotoxicity rating) [21] | Post-emerge Herbicidal Activity CAO (phytotoxicity rating) [22] | Post-emerge Herbicidal Activity SOH (phytotoxicity rating) [24] | Pre-emerge Herbicidal Activity ECC (phytotoxicity rating) [25] | Post-emerge Herbicidal Activity AMR (phytotoxicity rating) [26] | Pre-emerge Herbicidal Activity SOH (phytotoxicity rating) [27] | Pre-emerge Herbicidal Activity AMR (phytotoxicity rating) [28] | also measured |
| --- | --- | --- | --- | --- | --- | --- | --- | --- | --- | --- | --- | --- | --- | --- | --- | --- | --- | --- | --- | --- | --- |
| C[C@@H]1Oc2cc(F)c(-c3nn(C)c(C(F)(F)F)c3Cl)c3c2N(CC(=O)N3)C1=O [1-49, 8-[4-Chloro-1-methyl-5-(trifluoromethyl)-1H-pyrazol-3-yl]-9-fluoro-2-S-methyl-5H-pyrazino[1,2,3-de]-1,4-benzoxazine-3,6(2H, 7H)-dione] | 100 | 80 | 99 | 100 | 100 | 100 | 100 | 100 | 100 | 100 | 100 | 100 | 85 | 100 | 100 | 65 | 100 | 100 | 100 | 100 | Post-emerge crop damage SOY (phytotoxicity rating) [3, 31]: 80; Post-emerge crop damage CORN (phytotoxicity rating) [5, 31]: 35; Pre-emerge crop damage RICE (phytotoxicity rating) [7, 32]: 70; Pre-emerge crop damage SOY (phytotoxicity rating) [9, 32]: 50; Pre-emerge crop damage CORN (phytotoxicity rating) [15, 32]: 70; Post-emerge crop damage WHEAT (phytotoxicity rating) [17, 31]: 50; Post-emerge crop damage RICE (phytotoxicity rating) [20, 31]: 85; Pre-emerge crop damage WHEAT (phytotoxicity rating) [23, 32]: 60; Pre-emerge Herbicidal Activity AML (phytotoxicity rating) [29]: 100; Post-emerge Herbicidal Activity ECC (phytotoxicity rating) [30]: 100 |
| Cn1nc(-c2c(F)cc3c4c2NC(=O)CN4C(=O)C(C)(C)O3)c(Cl)c1C(F)(F)F [1-52, 8-[4-Chloro-1-methyl-5-(trifluoromethyl)-1H-pyrazol-3-yl]-2,2-dimethyl-9-fluoro-5H-pyrazino[1,2,3-de]-1,4-benzoxazine-3,6(2H, 7H)-dione] | 100 | 60 | 0 | 100 | 100 | 70 | 75 | 97 | 90 | 95 | 0 | 80 | 85 | 100 | 50 | 0 | 85 | 100 | 100 | 100 | Post-emerge crop damage SOY (phytotoxicity rating) [3, 33]: 0; Post-emerge crop damage CORN (phytotoxicity rating) [5, 34]: 0; Pre-emerge crop damage RICE (phytotoxicity rating) [7, 35]: 0; Pre-emerge crop damage SOY (phytotoxicity rating) [9, 33]: 50; Pre-emerge crop damage CORN (phytotoxicity rating) [15, 34]: 50; Post-emerge crop damage WHEAT (phytotoxicity rating) [17, 36]: 0; Post-emerge crop damage RICE (phytotoxicity rating) [20, 35]: 0; Pre-emerge crop damage WHEAT (phytotoxicity rating) [23, 36]: 0; Pre-emerge Herbicidal Activity AML (phytotoxicity rating) [29]: 98; Post-emerge Herbicidal Activity ECC (phytotoxicity rating) [30]: 50 |
| CC1C(=O)Nc2c(-c3nn(C)c(C(F)(F)F)c3Cl)c(F)cc3c2N1C(=O)C(C)(C)O3 (stereo not drawn) [1-54] | 99 | 80 | 0 | 100 | 100 | 60 | 65 | 99 | 98 | 75 | 65 | 95 | 90 | 100 | 40 | 0 | 85 | 80 | 99 | 100 | Post-emerge crop damage SOY (phytotoxicity rating) [3, 31]: 45; Post-emerge crop damage CORN (phytotoxicity rating) [5, 31]: 0; Pre-emerge crop damage RICE (phytotoxicity rating) [7, 32]: 0; Pre-emerge crop damage SOY (phytotoxicity rating) [9, 32]: 55; Pre-emerge crop damage CORN (phytotoxicity rating) [15, 32]: 55; Post-emerge crop damage WHEAT (phytotoxicity rating) [17, 31]: 0; Post-emerge crop damage RICE (phytotoxicity rating) [20, 31]: 0; Pre-emerge crop damage WHEAT (phytotoxicity rating) [23, 32]: 0; Pre-emerge Herbicidal Activity AML (phytotoxicity rating) [29]: 95; Post-emerge Herbicidal Activity ECC (phytotoxicity rating) [30]: 0 |
